Test results: publication PMC3933419, “Synthesis and Properties of a Selective Inhibitor of Homeodomain–Interacting Protein Kinase 2 (HIPK2)” (PLoS ONE, 2014)

Assays:
[1] = system: Ser46 of p53; experiment: Phosphorylation of p53 Ser46 in treated CEM cells (WB); format: cell-based, human; conditions: 6 h treatment
Experimental: Treatments with TBID were performed in the same medium but with 1% fetal calf serum; control cells were treated with the solvent (DMSO). Total cell lysates were prepared as in [29].
Endogenous HIPK2 activity was evaluated by measuring the phosphorylation level of its target site Ser46 of p53: to this purpose, CEM cells were treated for 6 h as indicated, then lysed. […] Bands were quantified by Carestream Molecular Imaging Software (Kodak) and the obtained values were normalized to total p53 signal with a Cell Signaling Technology antibody; anti-actin (Sigma) was used as loading control.

[2] = molecular target: ABL (Homo sapiens, UniProt P00519); experiment: Kinase panel selectivity profiling; format: biochemical; conditions: TBID 1 μM, 125 kinase panel, read-out: % activity of the enzyme
Source text: (§1) The source of HIPK2 and of all of the other protein kinases used for specificity assays is as described elsewhere.
(§2) Conditions for the activity assays of all other protein kinases tested in selectivity experiments are as described or referenced in [9].

[3] = molecular target: BTK (Homo sapiens, UniProt Q06187); experiment: Kinase panel selectivity profiling; format: biochemical
Sequence of BTK (Q06187 whole entry): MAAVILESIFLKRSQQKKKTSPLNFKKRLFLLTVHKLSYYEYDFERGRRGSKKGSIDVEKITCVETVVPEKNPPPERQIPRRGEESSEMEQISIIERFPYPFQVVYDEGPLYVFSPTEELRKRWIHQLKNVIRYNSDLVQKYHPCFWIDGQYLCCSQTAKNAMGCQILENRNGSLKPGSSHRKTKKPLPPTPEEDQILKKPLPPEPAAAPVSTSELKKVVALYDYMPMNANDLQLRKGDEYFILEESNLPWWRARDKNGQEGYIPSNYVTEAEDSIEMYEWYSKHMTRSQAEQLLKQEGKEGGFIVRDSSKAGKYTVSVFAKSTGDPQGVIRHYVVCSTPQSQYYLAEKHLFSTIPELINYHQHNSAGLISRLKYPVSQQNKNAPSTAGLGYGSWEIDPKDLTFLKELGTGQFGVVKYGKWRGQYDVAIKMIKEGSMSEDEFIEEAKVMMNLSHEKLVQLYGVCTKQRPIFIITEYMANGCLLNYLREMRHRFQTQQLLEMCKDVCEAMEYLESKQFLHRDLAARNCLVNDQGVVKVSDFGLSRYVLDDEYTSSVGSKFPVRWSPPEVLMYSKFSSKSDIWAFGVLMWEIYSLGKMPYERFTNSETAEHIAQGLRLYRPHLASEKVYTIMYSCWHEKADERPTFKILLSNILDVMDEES
Source text: as §1, §2

[4] = molecular target: CAMKKb (Homo sapiens, UniProt Q96RR4); experiment: Kinase panel selectivity profiling; format: biochemical
Sequence of CAMKKb (Q96RR4 whole entry): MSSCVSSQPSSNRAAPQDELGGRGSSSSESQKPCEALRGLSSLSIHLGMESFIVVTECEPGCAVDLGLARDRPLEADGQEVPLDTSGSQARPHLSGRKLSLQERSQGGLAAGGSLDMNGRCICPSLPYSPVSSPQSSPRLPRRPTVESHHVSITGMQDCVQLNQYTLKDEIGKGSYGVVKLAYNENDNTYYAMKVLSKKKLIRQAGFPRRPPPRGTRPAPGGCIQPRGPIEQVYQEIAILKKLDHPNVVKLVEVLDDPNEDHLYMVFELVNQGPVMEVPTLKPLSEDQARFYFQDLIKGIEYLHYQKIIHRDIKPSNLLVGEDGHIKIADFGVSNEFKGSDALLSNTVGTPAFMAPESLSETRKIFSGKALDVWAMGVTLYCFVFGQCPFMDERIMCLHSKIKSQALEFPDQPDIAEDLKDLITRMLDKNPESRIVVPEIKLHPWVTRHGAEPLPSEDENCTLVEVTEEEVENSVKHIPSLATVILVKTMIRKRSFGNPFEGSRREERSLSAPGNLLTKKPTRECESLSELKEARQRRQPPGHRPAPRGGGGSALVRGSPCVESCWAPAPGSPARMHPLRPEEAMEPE
Source text: as §1, §2

[5] = molecular target: CDK2-Cyclin A (Homo sapiens, UniProt P24941); experiment: Kinase panel selectivity profiling; format: biochemical; conditions: TBID 1 μM, 125 kinase panel, read-out: % activity of the enzyme
Source text: as §1, §2

[6] = molecular target: CHK2 (Homo sapiens, UniProt O96017); experiment: Kinase panel selectivity profiling; format: biochemical; conditions: TBID 1 μM, 125 kinase panel, read-out: % activity of the enzyme
Source text: as §1, §2

[7] = molecular target: CK1 (Homo sapiens, UniProt P48730); experiment: Kinase panel selectivity profiling; format: biochemical; conditions: TBID 1 μM, 125 kinase panel, read-out: % activity of the enzyme
Sequence of CK1 (P48730 whole entry): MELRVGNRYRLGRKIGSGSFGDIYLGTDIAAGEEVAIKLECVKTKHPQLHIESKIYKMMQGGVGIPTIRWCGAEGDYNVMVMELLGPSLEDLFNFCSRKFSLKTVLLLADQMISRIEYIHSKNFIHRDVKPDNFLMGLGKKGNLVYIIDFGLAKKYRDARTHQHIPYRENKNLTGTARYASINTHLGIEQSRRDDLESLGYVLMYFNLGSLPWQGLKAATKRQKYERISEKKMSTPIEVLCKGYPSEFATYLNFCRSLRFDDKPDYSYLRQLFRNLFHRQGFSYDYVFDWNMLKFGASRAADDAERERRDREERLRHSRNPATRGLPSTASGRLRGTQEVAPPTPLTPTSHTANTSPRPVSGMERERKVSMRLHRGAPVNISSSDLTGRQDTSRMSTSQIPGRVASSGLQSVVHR
Source text: as §1, §2

[8] = molecular target: DYRK2 (Homo sapiens, UniProt Q92630); experiment: Kinase panel selectivity profiling; format: biochemical; conditions: TBID 1 μM, 125 kinase panel, read-out: % activity of the enzyme
Source text: as §1, §2

[9] = molecular target: EIF2AK3 (Homo sapiens, UniProt Q9NZJ5); experiment: Kinase panel selectivity profiling; format: biochemical; conditions: TBID 1 μM, 125 kinase panel, read-out: % activity of the enzyme
Source text: as §1, §2

[10] = molecular target: EPH-B4 (Homo sapiens, UniProt P54760); experiment: Kinase panel selectivity profiling; format: biochemical; conditions: TBID 1 μM, 125 kinase panel, read-out: % activity of the enzyme
Source text: as §1, §2

[11] = molecular target: ERK2 (Homo sapiens, UniProt P28482); experiment: Kinase panel selectivity profiling; format: biochemical; conditions: TBID 1 μM, 125 kinase panel, read-out: % activity of the enzyme
Sequence of ERK2 (P28482 whole entry): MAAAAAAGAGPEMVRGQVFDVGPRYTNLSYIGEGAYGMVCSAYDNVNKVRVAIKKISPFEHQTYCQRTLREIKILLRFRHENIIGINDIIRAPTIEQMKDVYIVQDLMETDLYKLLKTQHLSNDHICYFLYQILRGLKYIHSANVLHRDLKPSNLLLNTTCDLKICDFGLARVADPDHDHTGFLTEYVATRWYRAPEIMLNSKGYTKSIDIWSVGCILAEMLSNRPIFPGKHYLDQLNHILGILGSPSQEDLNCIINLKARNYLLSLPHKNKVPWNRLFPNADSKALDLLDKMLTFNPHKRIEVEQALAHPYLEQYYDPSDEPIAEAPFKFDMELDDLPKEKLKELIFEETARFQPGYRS
Source text: as §1, §2

[12] = molecular target: IKKe (Homo sapiens, UniProt Q14164); experiment: Kinase panel selectivity profiling; format: biochemical; conditions: TBID 1 μM, 125 kinase panel, read-out: % activity of the enzyme
Sequence of IKKe (Q14164 whole entry): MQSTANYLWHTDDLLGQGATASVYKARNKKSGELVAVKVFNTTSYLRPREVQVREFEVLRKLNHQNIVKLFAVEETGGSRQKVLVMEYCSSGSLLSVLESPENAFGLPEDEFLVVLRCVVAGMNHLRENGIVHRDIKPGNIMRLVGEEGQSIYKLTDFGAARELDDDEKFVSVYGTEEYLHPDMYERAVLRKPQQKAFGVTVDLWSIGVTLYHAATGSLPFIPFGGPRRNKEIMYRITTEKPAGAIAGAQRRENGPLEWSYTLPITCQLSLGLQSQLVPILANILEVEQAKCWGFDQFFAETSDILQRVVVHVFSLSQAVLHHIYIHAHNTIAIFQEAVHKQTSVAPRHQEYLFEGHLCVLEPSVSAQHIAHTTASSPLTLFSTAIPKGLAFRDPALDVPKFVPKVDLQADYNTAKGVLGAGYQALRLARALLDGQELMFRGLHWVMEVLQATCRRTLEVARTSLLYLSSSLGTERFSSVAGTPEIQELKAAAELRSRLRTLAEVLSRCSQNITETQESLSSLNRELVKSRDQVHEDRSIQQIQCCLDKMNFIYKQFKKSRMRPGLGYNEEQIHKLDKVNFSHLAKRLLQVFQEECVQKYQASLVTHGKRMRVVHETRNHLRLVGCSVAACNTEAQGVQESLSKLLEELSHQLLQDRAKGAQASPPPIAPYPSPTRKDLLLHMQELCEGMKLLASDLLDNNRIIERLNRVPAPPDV
Source text: as §1, §2

[13] = molecular target: JNK1 (Homo sapiens, UniProt P45983); experiment: Kinase panel selectivity profiling; format: biochemical; conditions: TBID 1 μM, 125 kinase panel, read-out: % activity of the enzyme
Source text: as §1, §2

[14] = molecular target: JNK2 (Homo sapiens, UniProt P45984); experiment: Kinase panel selectivity profiling; format: biochemical; conditions: TBID 1 μM, 125 kinase panel, read-out: % activity of the enzyme
Source text: as §1, §2

[15] = molecular target: Lck (Homo sapiens, UniProt P06239); experiment: Kinase panel selectivity profiling; format: biochemical; conditions: TBID 1 μM, 125 kinase panel, read-out: % activity of the enzyme
Source text: as §1, §2

[16] = molecular target: MAPKAP-K2 (Homo sapiens, UniProt P49137); experiment: Kinase panel selectivity profiling; format: biochemical; conditions: TBID 1 μM, 125 kinase panel, read-out: % activity of the enzyme
Source text: as §1, §2

[17] = molecular target: MARK2 (Homo sapiens, UniProt Q7KZI7); experiment: Kinase panel selectivity profiling; format: biochemical; conditions: TBID 1 μM, 125 kinase panel, read-out: % activity of the enzyme
Source text: as §1, §2

[18] = molecular target: MLK1 (Homo sapiens, UniProt P80192); experiment: Kinase panel selectivity profiling; format: biochemical; conditions: TBID 1 μM, 125 kinase panel, read-out: % activity of the enzyme
Source text: as §1, §2

[19] = molecular target: MLK3 (Homo sapiens, UniProt Q16584); experiment: Kinase panel selectivity profiling; format: biochemical; conditions: TBID 1 μM, 125 kinase panel, read-out: % activity of the enzyme
Source text: as §1, §2

[20] = molecular target: MNK1 (Homo sapiens, UniProt Q9BUB5); experiment: Kinase panel selectivity profiling; format: biochemical; conditions: TBID 1 μM, 125 kinase panel, read-out: % activity of the enzyme
Source text: as §1, §2

[21] = molecular target: MPSK1 (Homo sapiens, UniProt O75716); experiment: Kinase panel selectivity profiling; format: biochemical; conditions: TBID 1 μM, 125 kinase panel, read-out: % activity of the enzyme
Source text: as §1, §2

[22] = molecular target: NUAK1 (Homo sapiens, UniProt O60285); experiment: Kinase panel selectivity profiling; format: biochemical; conditions: TBID 1 μM, 125 kinase panel, read-out: % activity of the enzyme
Sequence of NUAK1 (O60285 whole entry): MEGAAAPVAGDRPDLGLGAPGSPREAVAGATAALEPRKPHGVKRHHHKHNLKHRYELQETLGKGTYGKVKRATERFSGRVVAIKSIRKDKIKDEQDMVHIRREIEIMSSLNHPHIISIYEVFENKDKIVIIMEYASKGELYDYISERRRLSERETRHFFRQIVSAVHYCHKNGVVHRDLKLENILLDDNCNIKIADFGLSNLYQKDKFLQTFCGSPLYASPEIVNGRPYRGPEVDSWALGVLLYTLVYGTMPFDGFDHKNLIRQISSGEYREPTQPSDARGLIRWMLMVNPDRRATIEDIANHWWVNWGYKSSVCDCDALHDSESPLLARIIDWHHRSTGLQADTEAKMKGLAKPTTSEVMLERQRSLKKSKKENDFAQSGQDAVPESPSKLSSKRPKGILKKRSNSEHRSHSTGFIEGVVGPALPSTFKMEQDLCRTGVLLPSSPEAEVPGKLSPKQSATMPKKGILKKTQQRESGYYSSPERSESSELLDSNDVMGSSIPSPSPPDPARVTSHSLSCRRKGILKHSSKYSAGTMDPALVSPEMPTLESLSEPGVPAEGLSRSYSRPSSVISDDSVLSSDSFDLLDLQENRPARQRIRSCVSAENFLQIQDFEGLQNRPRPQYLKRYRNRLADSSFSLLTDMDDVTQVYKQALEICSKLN
Source text: as §1, §2

[23] = molecular target: PAK2 (Homo sapiens, UniProt Q13177); experiment: Kinase panel selectivity profiling; format: biochemical; conditions: TBID 1 μM, 125 kinase panel, read-out: % activity of the enzyme
Source text: as §1, §2

[24] = molecular target: PAK5 (Homo sapiens, UniProt Q9P286); experiment: Kinase panel selectivity profiling; format: biochemical; conditions: TBID 1 μM, 125 kinase panel, read-out: % activity of the enzyme
Source text: as §1, §2

[25] = molecular target: PDK1 (Homo sapiens, UniProt O15530); experiment: Kinase panel selectivity profiling; format: biochemical; conditions: TBID 1 μM, 125 kinase panel, read-out: % activity of the enzyme
Source text: as §1, §2

[26] = molecular target: PKD1 (Homo sapiens, UniProt Q15139); experiment: Kinase panel selectivity profiling; format: biochemical; conditions: TBID 1 μM, 125 kinase panel, read-out: % activity of the enzyme
Sequence of PKD1 (Q15139 whole entry): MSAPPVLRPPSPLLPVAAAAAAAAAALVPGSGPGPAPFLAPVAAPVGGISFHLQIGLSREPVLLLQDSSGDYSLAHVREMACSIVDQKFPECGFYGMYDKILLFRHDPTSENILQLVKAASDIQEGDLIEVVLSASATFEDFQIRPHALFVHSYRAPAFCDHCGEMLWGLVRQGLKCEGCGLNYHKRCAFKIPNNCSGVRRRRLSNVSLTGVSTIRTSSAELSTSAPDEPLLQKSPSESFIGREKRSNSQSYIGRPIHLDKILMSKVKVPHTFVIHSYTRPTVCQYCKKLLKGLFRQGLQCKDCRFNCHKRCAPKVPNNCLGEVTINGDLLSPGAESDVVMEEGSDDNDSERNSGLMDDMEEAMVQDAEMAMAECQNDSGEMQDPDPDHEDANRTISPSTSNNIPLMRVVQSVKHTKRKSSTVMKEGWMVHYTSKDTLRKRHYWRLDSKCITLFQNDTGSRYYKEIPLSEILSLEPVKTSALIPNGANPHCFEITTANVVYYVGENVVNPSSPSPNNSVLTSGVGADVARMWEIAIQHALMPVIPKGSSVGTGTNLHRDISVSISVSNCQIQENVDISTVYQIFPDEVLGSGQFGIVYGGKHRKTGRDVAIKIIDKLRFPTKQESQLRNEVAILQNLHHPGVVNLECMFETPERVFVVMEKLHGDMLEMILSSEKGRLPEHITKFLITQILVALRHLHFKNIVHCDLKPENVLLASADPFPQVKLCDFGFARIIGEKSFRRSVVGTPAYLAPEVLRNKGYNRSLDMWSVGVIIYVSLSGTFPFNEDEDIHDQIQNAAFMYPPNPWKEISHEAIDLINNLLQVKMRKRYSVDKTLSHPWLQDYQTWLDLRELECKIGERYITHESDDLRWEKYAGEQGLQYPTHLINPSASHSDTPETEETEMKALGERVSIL
Source text: as §1, §2

[27] = molecular target: PLK1 (Homo sapiens, UniProt P53350); experiment: Kinase panel selectivity profiling; format: biochemical; conditions: TBID 1 μM, 125 kinase panel, read-out: % activity of the enzyme
Source text: as §1, §2

[28] = molecular target: SGK1 (Homo sapiens, UniProt O00141); experiment: Kinase panel selectivity profiling; format: biochemical; conditions: TBID 1 μM, 125 kinase panel, read-out: % activity of the enzyme
Source text: as §1, §2

[29] = molecular target: TAK1 (Homo sapiens, UniProt O43318); experiment: Kinase panel selectivity profiling; format: biochemical; conditions: TBID 1 μM, 125 kinase panel, read-out: % activity of the enzyme
Source text: as §1, §2

[30] = molecular target: TIE2 (Homo sapiens, UniProt Q02763); experiment: Kinase panel selectivity profiling; format: biochemical; conditions: TBID 1 μM, 125 kinase panel, read-out: % activity of the enzyme
Source text: as §1, §2

[31] = molecular target: ZAP70 (Homo sapiens, UniProt P43403); experiment: Kinase panel selectivity profiling; format: biochemical; conditions: TBID 1 μM, 125 kinase panel, read-out: % activity of the enzyme
Sequence of ZAP70 (P43403 whole entry): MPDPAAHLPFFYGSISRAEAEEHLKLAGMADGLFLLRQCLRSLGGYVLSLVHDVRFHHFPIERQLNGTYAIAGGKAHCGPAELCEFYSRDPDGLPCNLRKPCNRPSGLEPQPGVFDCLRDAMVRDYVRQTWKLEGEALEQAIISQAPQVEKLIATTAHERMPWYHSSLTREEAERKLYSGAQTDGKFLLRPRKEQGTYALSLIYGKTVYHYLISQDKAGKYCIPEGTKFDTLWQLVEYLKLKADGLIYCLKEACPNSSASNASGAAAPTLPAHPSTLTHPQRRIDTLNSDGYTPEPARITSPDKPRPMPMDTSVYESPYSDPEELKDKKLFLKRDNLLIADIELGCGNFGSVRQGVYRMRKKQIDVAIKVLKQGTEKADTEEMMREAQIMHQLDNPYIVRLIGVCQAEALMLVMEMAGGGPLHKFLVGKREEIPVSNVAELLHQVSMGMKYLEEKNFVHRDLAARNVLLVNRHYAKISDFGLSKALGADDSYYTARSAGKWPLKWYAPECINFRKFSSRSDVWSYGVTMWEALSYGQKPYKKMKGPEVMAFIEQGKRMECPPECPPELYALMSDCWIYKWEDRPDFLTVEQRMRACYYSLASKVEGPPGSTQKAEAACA
Source text: as §1, §2

[32] = 10 µM TBID, panel of 76 protein kinases, read-out: residual activity
[33] = TBID 1 μM, 125 kinase panel, read-out: % activity of the enzyme

## O=C1c2c(Br)c(Br)c(Br)c(Br)c2C(=O)N1c1ncc[nH]1 [TBID, 4,5,6,7-Tetrabromo-2-(1H-imidazol-2-yl)isoindoline-1,3-dione]
[1]
  phosphorylation level of p53 Ser46: markedly reduces
[2]
  activity at 1 µM: 99%
[3]; [32]
  remaining activity at 10 µM: 29%
[3]; [33]
  activity at 1 µM: 84%
[4]; [32]
  remaining activity at 10 µM: 34%
[4]; [33]
  activity at 1 µM: 75%
[5]
  activity at 1 µM: 98%
[6]
  activity at 1 µM: 100%
[7]
  activity at 1 µM: 105%
[8]
  activity at 1 µM: 94%
[9]
  activity at 1 µM: 107%
[10]
  activity at 1 µM: 114%
[11]
  activity at 1 µM: 91%
[12]
  activity at 1 µM: 85%
[13]
  activity at 1 µM: 106%
[14]
  activity at 1 µM: 110%
[15]
  activity at 1 µM: 109%
[16]
  activity at 1 µM: 119%
[17]
  activity at 1 µM: 100%
[18]
  activity at 1 µM: 83%
[19]
  activity at 1 µM: 97%
[20]
  activity at 1 µM: 106%
[21]
  activity at 1 µM: 93%
[22]
  activity at 1 µM: 81%
[23]
  activity at 1 µM: 97%
[24]
  activity at 1 µM: 105%
[25]
  activity at 1 µM: 97%
[26]
  activity at 1 µM: 98%
[27]
  activity at 1 µM: 83%
[28]
  activity at 1 µM: 98%
[29]
  activity at 1 µM: 78%
[30]
  activity at 1 µM: 115%
[31]
  activity at 1 µM: 91%
